# Several values for one entry are separate records, joined by “and”; a condition that tells them apart may be missing. Equal values may be shown once.
# Molecular target: JNK1 (Homo sapiens, UniProt P45983)
# Assay: DELFIA kinase assay, JNK1
# Assay type: biochemical
# Conditions: DELFIA assay, 2 nM JNK1, 7 uM ATP, 10 min pre-incubation; second table; read-out: JNK 1 IC50
# Method: Assay DELFIA (Dissociation Enhanced Lanthanide Fluorescence Immuno-Assay) Assay:
# Before initiation of kinase reactions, compounds were pre-incubated with the enzyme for 10 minutes. Pre-incubation reactions contained 50 mM HEPES pH 7.3, 10 mM MgCl2, 1 mM DTT, 75 mM NaCl, 1 mM EDTA, 1 mM EGTA, 0.01% CHAPS, 2 nM JNK1, 6 ug/mL biotinylated GST-ATF2, 0.1 mg/ml BSA, 5% DMSO and 0-100 μM compound in a total volume of 40 μL. After a 10 minute room temperature pre-incubation, 10 μL of 35 μM ATP was added to start the reaction (final concentration of ATP=7 uM). Reactions were incubated at room temperature for 30 minutes. A small aliquot (10 uL) was taken and quenched by adding into 190 uL of DELFIA Assay buffer containing 100 mM EDTA. The amount of phosphate transferred to biotinylated GST-ATF2 was measured using the Dissociation Enhanced Lanthanide Fluorescence Immuno-assay (DELFIA) from Perkin Elmer according to manufacturers protocol. Briefly, biotinylated GST-ATF2 was captured on streptavidin coated plates for 1 hour, washed twice, then incubated for 1 hour with a 1:1000 dilution of rabbit-anti-phospho-ATF2 antibody and a 1:3500 dilution of Europium-labeled anti-rabbit secondary antibody. Free antibody was removed with six washes, Europium was dissociated from the antibody, and Europium fluorescence was measured using an excitation wavelength of 340 nm and an emission wavelength of 615 nm. JNK2 and JNK3 kinase reactions were carried out similarly, with the exception that the final concentration of ATP was 4 uM and 2 uM, respectively.
# Chain of JNK1 (P45983 whole entry, species assumed): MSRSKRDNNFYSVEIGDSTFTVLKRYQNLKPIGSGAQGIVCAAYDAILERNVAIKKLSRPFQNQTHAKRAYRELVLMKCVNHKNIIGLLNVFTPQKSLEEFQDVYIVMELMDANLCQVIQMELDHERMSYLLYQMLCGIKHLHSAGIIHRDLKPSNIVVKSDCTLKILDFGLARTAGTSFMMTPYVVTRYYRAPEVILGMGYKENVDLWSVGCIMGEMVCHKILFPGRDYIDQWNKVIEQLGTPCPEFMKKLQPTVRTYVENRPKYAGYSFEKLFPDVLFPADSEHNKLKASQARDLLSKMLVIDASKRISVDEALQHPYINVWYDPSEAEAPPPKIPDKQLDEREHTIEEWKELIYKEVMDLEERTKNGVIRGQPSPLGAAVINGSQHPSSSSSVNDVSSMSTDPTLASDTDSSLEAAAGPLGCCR
row,SMILES,IC50 [nM]
1,CS(=O)(=O)c1ccc(-n2cc(CNC(=O)c3cccc(C(=O)NC4CCC4)n3)cn2)cc1 [Compound 76],10

# Same assay, conditions: DELFIA, biotinylated GST-ATF2 substrate, 10 minute pre-incubation, final ATP 7 uM
row,SMILES,IC50
1,N#Cc1ccccc1N1CCC(NC(=O)c2cccc(C(=O)NCc3ccc4nc(N)sc4c3)n2)CC1 [Compound 10],4 to 97 nM
2,Nc1nc2ccc(CNC(=O)c3cccc(C(=O)NC4CCC4)n3)cc2s1 [Compound 11],4 to 97 nM
3,Nc1nc2ccc(CNC(=O)c3cccc(C(=O)NC4CCCCC4)n3)cc2s1 [Compound 12],4 to 97 nM
4,CN(C)C(=O)c1cccc(C(=O)NCc2ccc3nc(N)sc3c2)n1 [Compound 13],> 1000 nM
5,CC(=O)NCCNC(=O)c1cccc(C(=O)NCc2ccc3nc(N)sc3c2)n1 [Compound 16],> 1000 nM
6,Nc1nc2ccc(CNC(=O)c3cccc(C(=O)NC[C@@H](O)c4ccccc4)n3)cc2s1 [Compound 24],> 1000 nM
7,Nc1nc2ccc(CNC(=O)c3cccc(C(=O)NC[C@H](O)c4ccccc4)n3)cc2s1 [Compound 25],102 to 959 nM
8,Nc1nc2ccc(CNC(=O)c3cccc(C(=O)NCCN4CCOCC4)n3)cc2s1 [Compound 26],> 1000 nM
9,Nc1nc2ccc(CNC(=O)c3cccc(C(=O)NCCc4ccccc4)n3)cc2s1 [Compound 27],> 1000 nM
10,CC(=O)N1CCC(NC(=O)c2cccc(C(=O)NCc3ccc4nc(N)sc4c3)n2)CC1 [Compound 28],102 to 959 nM
11,CN1CCC(NC(=O)c2cccc(C(=O)NCc3ccc4nc(N)sc4c3)n2)CC1 [Compound 29],> 1000 nM
12,Nc1nc2ccc(CNC(=O)c3cccc(C(=O)NC4CCN(Cc5ccccc5)CC4)n3)cc2s1 [Compound 30],> 1000 nM
13,Nc1nc2ccc(CNC(=O)c3cccc(C(=O)N4CCC(c5cccc(O)c5)C(O)C4)n3)cc2s1 (centres unmarked) [Compound 31],> 1000 nM
14,COC(=O)c1cccc(C2CCN(C(=O)c3cccc(C(=O)NCc4ccc5nc(N)sc5c4)n3)CC2O)c1 (centres unmarked) [Compound 32],> 1000 nM
15,COC(=O)c1ccc(C2CCN(C(=O)c3cccc(C(=O)NCc4ccc5nc(N)sc5c4)n3)CC2O)cc1 (centres unmarked) [Compound 33],> 1000 nM
16,Nc1nc2ccc(CNC(=O)c3cccc(C(=O)N4CCCC(O)C4)n3)cc2s1 (centres unmarked) [Compound 34],> 1000 nM
17,Nc1nc2ccc(CNC(=O)c3cccc(C(=O)N4CCC(O)CC4)n3)cc2s1 [Compound 35],> 1000 nM
18,Nc1nc2ccc(CNC(=O)c3cccc(C(=O)N4CCCCC4CO)n3)cc2s1 (centres unmarked) [Compound 36],> 1000 nM
19,Nc1nc2ccc(CNC(=O)c3cccc(C(=O)N4CCCC(CO)C4)n3)cc2s1 (centres unmarked) [Compound 37],> 1000 nM
20,CCOC(=O)N1CCC(NC(=O)c2cccc(C(=O)N(C)C)n2)CC1 [Compound 38],> 1000 nM
21,CCNC(=O)c1cccc(C(=O)NC2CCN(C(=O)OCC)CC2)n1 [Compound 39],> 1000 nM
22,CCOC(=O)N1CCC(NC(=O)c2cccc(C(=O)NCCO)n2)CC1 [Compound 40],> 1000 nM
23,CCOC(=O)N1CCC(NC(=O)c2cccc(C(=O)NCC(C)C)n2)CC1 [Compound 41],> 1000 nM
24,CCOC(=O)N1CCC(NC(=O)c2cccc(C(=O)NCc3ccncc3)n2)CC1 [Compound 42],> 1000 nM

row,SMILES,IC50
1,CCOC(=O)N1CCC(NC(=O)c2cccc(C(=O)NCc3ccc(S(C)(=O)=O)cc3)n2)CC1 [Compound 43],102 to 959 nM
2,CCOC(=O)N1CCC(NC(=O)c2cccc(C(=O)NCc3ccc4c(c3)OCO4)n2)CC1 [Compound 44],102 to 959 nM
3,CCOC(=O)N1CCC(NC(=O)c2cccc(C(=O)NCCc3ccccc3)n2)CC1 [Compound 45],> 1000 nM
4,Nc1nc2ccc(CNC(=O)c3cccc(C(=O)NC4CC4)n3)cc2s1 [Compound 48],102 to 959 nM
5,Nc1nc2ccc(CNC(=O)c3cccc(C(=O)N[C@H](CO)c4ccccc4)n3)cc2s1 [Compound 51],102 to 959 nM
6,NC(=O)c1cccc(C(=O)NCc2ccc3nc(N)sc3c2)n1 [Compound 52],102 to 959 nM
7,CC(C)(C)NC(=O)c1cccc(C(=O)NCc2ccc3nc(N)sc3c2)n1 [Compound 53],102 to 959 nM
8,Nc1nc2ccc(CNC(=O)c3cccc(C(=O)N[C@@H](CO)c4ccccc4)n3)cc2s1 [Compound 54],> 1000 nM and 1030 to 10000 nM
9,CS(=O)(=O)c1ccc(CNC(=O)c2cccc(C(=O)NC3CCN(C(N)=O)CC3)n2)cc1 [Compound 55],102 to 959 nM
10,CCNC(=O)N1CCC(NC(=O)c2cccc(C(=O)NCc3ccc(S(C)(=O)=O)cc3)n2)CC1 [Compound 56],> 1000 nM
11,CNC(=S)N1CCC(NC(=O)c2cccc(C(=O)NCc3ccc(S(C)(=O)=O)cc3)n2)CC1 [Compound 57],102 to 959 nM
12,CS(=O)(=O)c1ccc(CNC(=O)c2cccc(C(=O)NC3CCN(S(C)(=O)=O)CC3)n2)cc1 [Compound 58],> 1000 nM
13,CCS(=O)(=O)N1CCC(NC(=O)c2cccc(C(=O)NCc3ccc(S(C)(=O)=O)cc3)n2)CC1 [Compound 60],> 1000 nM
14,CS(=O)(=O)c1ccc(CNC(=O)c2cccc(C(=O)NC3CCN(S(=O)(=O)Cc4ccccc4)CC3)n2)cc1 [Compound 61],> 1000 nM
15,Nc1nc2ccc(CNC(=O)c3cccc(CO)n3)cc2s1 [Compound 63],1030 to 10000 nM and > 1000 nM
16,Nc1nc2ccc(CNC(=O)c3cccc(C(=O)NC4CCCC4)n3)cc2s1 [Compound 67],102 to 959 nM
17,Nc1nc2ccc(CNC(=O)c3cccc(C(=O)N[C@H]4CC[C@H](O)CC4)n3)cc2s1 [Compound 68],102 to 959 nM
18,Nc1nc2ccc(CNC(=O)c3cccc(C(=O)NCCCn4ccnc4)n3)cc2s1 [Compound 69],102 to 959 nM
19,C[C@@H](CNC(=O)c1cccc(C(=O)NCc2ccc3nc(N)sc3c2)n1)c1ccccc1 [Compound 70],102 to 959 nM
20,CCOC(=O)N1CCC(NC(=O)c2cccc(C(=O)NCc3ccc(-n4cccn4)cc3)n2)CC1 [Compound 72],102 to 959 nM
21,CCOC(=O)N1CCC(NC(=O)c2cccc(C(=O)NCc3ccc(C)c(F)c3)n2)CC1 [Compound 73],> 1000 nM and 1030 to 10000 nM
22,CCOC(=O)N1CCC(NC(=O)c2cccc(C(=O)NCc3ccc(OC)c(OC)c3)n2)CC1 [Compound 74],102 to 959 nM
23,CS(=O)(=O)c1ccc(-n2cc(CNC(=O)c3cccc(C(=O)NC4CCC4)n3)cn2)cc1 [Compound 76],4 to 19 nM and 4 to 97 nM
24,CS(=O)(=O)c1ccc(-n2cc(CNC(=O)c3cccc(C(=O)NC4CCCCC4)n3)cn2)cc1 [Compound 77],4 to 97 nM

# Results, then the molecule that gave them:
row,IC50,SMILES
1,4 to 97 nM,CC(C)NC(=O)c1cccc(C(=O)NCc2ccc3nc(N)sc3c2)n1 [Compound 5]
2,4 to 97 nM,C[C@@H](CO)NC(=O)c1cccc(C(=O)NCc2ccc3nc(N)sc3c2)n1 [Compound 6]
3,4 to 97 nM,CCC(C)NC(=O)c1cccc(C(=O)NCc2ccc3nc(N)sc3c2)n1 (centres unmarked) [Compound 7]
4,4 to 97 nM,CC[C@@H](C)NC(=O)c1cccc(C(=O)NCc2ccc3nc(N)sc3c2)n1 [Compound 8]
5,4 to 97 nM,CC[C@@H](CO)NC(=O)c1cccc(C(=O)NCc2ccc3nc(N)sc3c2)n1 [Compound 9]
6,> 1000 nM,CCNC(=O)c1cccc(C(=O)NCc2ccc3nc(N)sc3c2)n1 [Compound 14]
7,> 1000 nM,Nc1nc2ccc(CNC(=O)c3cccc(C(=O)NCCO)n3)cc2s1 [Compound 15]
8,> 1000 nM,Nc1nc2ccc(CNC(=O)c3cccc(C(=O)NCCCO)n3)cc2s1 [Compound 17]
9,102 to 959 nM,CC(CO)NC(=O)c1cccc(C(=O)NCc2ccc3nc(N)sc3c2)n1 (centres unmarked) [Compound 18]
10,> 1000 nM,CC(O)CNC(=O)c1cccc(C(=O)NCc2ccc3nc(N)sc3c2)n1 (centres unmarked) [Compound 19]
11,> 1000 nM,CC(C)C[C@@H](CO)NC(=O)c1cccc(C(=O)NCc2ccc3nc(N)sc3c2)n1 [Compound 20]
12,102 to 959 nM,CC(C)C[C@@H](CO)NC(=O)c1cccc(C(=O)NCc2ccc3nc(N)sc3c2)n1 [Compound 21]
13,> 1000 nM,Nc1nc2ccc(CNC(=O)c3cccc(C(=O)N[C@H](CO)Cc4ccccc4)n3)cc2s1 [Compound 22]
14,102 to 959 nM,Nc1nc2ccc(CNC(=O)c3cccc(C(=O)N[C@H](CO)Cc4ccccc4)n3)cc2s1 [Compound 23]
15,> 1000 nM,Nc1nc2ccc(CNC(=O)c3cccc(C(=O)O)n3)cc2s1 [Compound 46]
16,> 1000 nM,CNC(=O)c1cccc(C(=O)NCc2ccc3nc(N)sc3c2)n1 [Compound 47]
17,102 to 959 nM,C[C@H](CO)NC(=O)c1cccc(C(=O)NCc2ccc3nc(N)sc3c2)n1 [Compound 49]
18,102 to 959 nM,CC(C)[C@H](CO)NC(=O)c1cccc(C(=O)NCc2ccc3nc(N)sc3c2)n1 [Compound 50]
19,> 1000 nM,CC(C)[C@H](CO)NC(=O)c1cccc(C(=O)NCc2ccc3nc(N)sc3c2)n1 [Compound 59]
20,> 1000 nM,CCOC(=O)c1cccc(C(=O)NCc2ccc3nc(N)sc3c2)n1 [Compound 62]
21,> 1000 nM,CC(C)CNC(=O)c1cccc(C(=O)NCc2ccc3nc(N)sc3c2)n1 [Compound 64]
22,102 to 959 nM,CCCNC(=O)c1cccc(C(=O)NCc2ccc3nc(N)sc3c2)n1 [Compound 65]
23,> 1000 nM and 1030 to 10000 nM,C[C@H](NC(=O)c1cccc(C(=O)NCc2ccc3nc(N)sc3c2)n1)C(=O)O [Compound 66]
24,102 to 959 nM,CC(C)CCNC(=O)c1cccc(C(=O)NCc2ccc3nc(N)sc3c2)n1 [Compound 71]
25,102 to 959 nM,COC(=O)[C@H](C)NC(=O)c1cccc(C(=O)NCc2ccc3nc(N)sc3c2)n1 [Compound 75]

# Reference: patent publication US8278337B2, “Substituted pyridines that are JNK inhibitors” (Merck Sharp & Dohme, priority 2006, dated 2012)
